Measurements: the supplement of paper PMC10307832

Experiments:
Experiment in all cases: relative viability (nuclei count vs DMSO), 5 days (fraction); higher = more cells survive
A-427 = tested on: A-427
Summary of the method: (§1)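 Cells from lung cancer lines were seeded into 1536-well plates and, one day later, dosed by pin tool. Treatments were either a single drug or a fixed dose of an anchor drug with five library-drug doses (not always all listed) in √10 steps. After 5 days, nuclei were stained in a one-step fixation (final 0.05% Triton X-100, 1% formaldehyde, 1 ug/ml Hoechst) and counted on 4× images, and relative viability is the treated-to-vehicle nuclei ratio, as the median of duplicate plates.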

ChaGo-K-1 = tested on: ChaGo-K-1
Summary of the method: as §1

EKVX = tested on: EKVX
Summary of the method: as §1

H3255 = tested on: H3255
Summary of the method: as §1

LK-2 = tested on: LK-2
Summary of the method: as §1

NCI-H1355 = tested on: NCI-H1355
Summary of the method: as §1

NCI-H1650 = tested on: NCI-H1650
Summary of the method: as §1

NCI-H1666 = tested on: NCI-H1666
Summary of the method: as §1

NCI-H1755 = tested on: NCI-H1755
Summary of the method: as §1

NCI-H1944 = tested on: NCI-H1944
Summary of the method: as §1

NCI-H2085 = tested on: NCI-H2085
Summary of the method: as §1

NCI-H2228 = tested on: NCI-H2228
Summary of the method: as §1

NCI-H2347 = tested on: NCI-H2347
Summary of the method: as §1

NCI-H3122 = tested on: NCI-H3122
Summary of the method: as §1

NCI-H322M = tested on: NCI-H322M
Summary of the method: as §1

NCI-H358 = tested on: NCI-H358
Summary of the method: as §1

NCI-H441 = tested on: NCI-H441
Summary of the method: as §1

NCI-H460 = tested on: NCI-H460
Summary of the method: as §1

NCI-H520 = tested on: NCI-H520
Summary of the method: as §1

NCI-H596 = tested on: NCI-H596
Summary of the method: as §1

NCI-H650 = tested on: NCI-H650
Summary of the method: as §1

NCI-H838 = tested on: NCI-H838
Summary of the method: as §1

SW 1573 = tested on: SW 1573
Summary of the method: as §1

O=C(O)CCCCC(CCSCc1ccccc1)SCc1ccccc1 (stereo not drawn) [CPI-613] + N=C(N)NC(=N)NCCc1ccccc1 [Phenformin] (partner 250 µM)
relative viability (A-427; first compound 5 µM): 0.279
relative viability (A-427; first compound 15.81 µM): 0.255
relative viability (A-427; first compound 50 µM): 0.267
relative viability (A-427; first compound 158.11 µM): 0.178
relative viability (A-427; first compound 500 µM): 0.1
relative viability (ChaGo-K-1; first compound 5 µM): 0.47
relative viability (ChaGo-K-1; first compound 15.81 µM): 0.454
relative viability (ChaGo-K-1; first compound 50 µM): 0.491
relative viability (ChaGo-K-1; first compound 158.11 µM): 0.331
relative viability (ChaGo-K-1; first compound 500 µM): 0.124
relative viability (EKVX; first compound 5 µM): 0.247
relative viability (EKVX; first compound 15.81 µM): 0.223
relative viability (EKVX; first compound 50 µM): 0.212
relative viability (EKVX; first compound 158.11 µM): 0.164
relative viability (EKVX; first compound 500 µM): 0.213
relative viability (H3255; first compound 5 µM): 0.351
relative viability (H3255; first compound 15.81 µM): 0.299
relative viability (H3255; first compound 50 µM): 0.399
relative viability (H3255; first compound 500 µM): 0.299
relative viability (LK-2; first compound 5 µM): 0.379
relative viability (LK-2; first compound 15.81 µM): 0.32
relative viability (LK-2; first compound 50 µM): 0.517
relative viability (LK-2; first compound 158.11 µM): 0.346
relative viability (LK-2; first compound 500 µM): 0.0954
relative viability (NCI-H1355; first compound 5 µM): 0.423
relative viability (NCI-H1355; first compound 15.81 µM): 0.412
relative viability (NCI-H1355; first compound 50 µM): 0.411
relative viability (NCI-H1355; first compound 158.11 µM): 0.347
relative viability (NCI-H1355; first compound 500 µM): 0.105
relative viability (NCI-H1650; first compound 5 µM): 0.403
relative viability (NCI-H1650; first compound 15.81 µM): 0.408
relative viability (NCI-H1650; first compound 50 µM): 0.366
relative viability (NCI-H1650; first compound 158.11 µM): 0.136
relative viability (NCI-H1650; first compound 500 µM): 0.0086
relative viability (NCI-H1666; first compound 5 µM): 0.56
relative viability (NCI-H1666; first compound 15.81 µM): 0.539
relative viability (NCI-H1666; first compound 50 µM): 0.534
relative viability (NCI-H1666; first compound 158.11 µM): 0.26
relative viability (NCI-H1666; first compound 500 µM): 0.251
relative viability (NCI-H1755; first compound 5 µM): 0.608
relative viability (NCI-H1755; first compound 15.81 µM): 0.642
relative viability (NCI-H1755; first compound 50 µM): 0.558
relative viability (NCI-H1755; first compound 158.11 µM): 0.533
relative viability (NCI-H1755; first compound 500 µM): 0.183
relative viability (NCI-H1944; first compound 5 µM): 0.194
relative viability (NCI-H1944; first compound 15.81 µM): 0.185
relative viability (NCI-H1944; first compound 50 µM): 0.187
relative viability (NCI-H1944; first compound 158.11 µM): 0.14
relative viability (NCI-H1944; first compound 500 µM): 0.0441
relative viability (NCI-H2085; first compound 5 µM): 0.814
relative viability (NCI-H2085; first compound 15.81 µM): 0.62
relative viability (NCI-H2085; first compound 50 µM): 0.701
relative viability (NCI-H2085; first compound 158.11 µM): 0.295
relative viability (NCI-H2085; first compound 500 µM): 0.0903
relative viability (NCI-H2228; first compound 5 µM): 0.344
relative viability (NCI-H2228; first compound 15.81 µM): 0.33
relative viability (NCI-H2228; first compound 50 µM): 0.222
relative viability (NCI-H2228; first compound 158.11 µM): 0.208
relative viability (NCI-H2228; first compound 500 µM): 0.0339
relative viability (NCI-H2347; first compound 5 µM): 0.441
relative viability (NCI-H2347; first compound 15.81 µM): 0.352
relative viability (NCI-H2347; first compound 50 µM): 0.461
relative viability (NCI-H2347; first compound 158.11 µM): 0.471
relative viability (NCI-H2347; first compound 500 µM): 0.378
relative viability (NCI-H3122; first compound 5 µM): 0.387
relative viability (NCI-H3122; first compound 15.81 µM): 0.364
relative viability (NCI-H3122; first compound 50 µM): 0.339
relative viability (NCI-H3122; first compound 158.11 µM): 0.17
relative viability (NCI-H3122; first compound 500 µM): 0.0221
relative viability (NCI-H322M; first compound 5 µM): 0.76
relative viability (NCI-H322M; first compound 15.81 µM): 0.718
relative viability (NCI-H322M; first compound 50 µM): 0.728
relative viability (NCI-H322M; first compound 158.11 µM): 0.693
relative viability (NCI-H322M; first compound 500 µM): 0.0264
relative viability (NCI-H358; first compound 15.81 µM): 0.297
relative viability (NCI-H358; first compound 50 µM): 0.31
relative viability (NCI-H358; first compound 158.11 µM): 0.172
relative viability (NCI-H358; first compound 500 µM): 0.017
relative viability (NCI-H441; first compound 5 µM): 0.885
relative viability (NCI-H441; first compound 15.81 µM): 0.734
relative viability (NCI-H441; first compound 50 µM): 0.79
relative viability (NCI-H441; first compound 158.11 µM): 0.284
relative viability (NCI-H441; first compound 500 µM): 0.0276
relative viability (NCI-H460; first compound 5 µM): 0.521
relative viability (NCI-H460; first compound 15.81 µM): 0.449
relative viability (NCI-H460; first compound 50 µM): 0.434
relative viability (NCI-H460; first compound 158.11 µM): 0.115
relative viability (NCI-H460; first compound 500 µM): 0.0156
relative viability (NCI-H520; first compound 5 µM): 0.667
relative viability (NCI-H520; first compound 15.81 µM): 0.433
relative viability (NCI-H520; first compound 50 µM): 0.634
relative viability (NCI-H520; first compound 158.11 µM): 0.446
relative viability (NCI-H520; first compound 500 µM): 0.35
relative viability (NCI-H596; first compound 5 µM): 0.64
relative viability (NCI-H596; first compound 15.81 µM): 0.672
relative viability (NCI-H596; first compound 50 µM): 0.812
relative viability (NCI-H596; first compound 158.11 µM): 0.668
relative viability (NCI-H596; first compound 500 µM): 0.0197
relative viability (NCI-H650; first compound 5 µM): 0.508
relative viability (NCI-H650; first compound 15.81 µM): 0.412
relative viability (NCI-H650; first compound 50 µM): 0.448
relative viability (NCI-H650; first compound 158.11 µM): 0.371
relative viability (NCI-H650; first compound 500 µM): 0.333
relative viability (NCI-H838; first compound 5 µM): 0.586
relative viability (NCI-H838; first compound 15.81 µM): 0.481
relative viability (NCI-H838; first compound 50 µM): 0.558
relative viability (NCI-H838; first compound 158.11 µM): 0.261
relative viability (NCI-H838; first compound 500 µM): 0.0688
relative viability (SW 1573; first compound 5 µM): 0.347
relative viability (SW 1573; first compound 15.81 µM): 0.357
relative viability (SW 1573; first compound 50 µM): 0.304
relative viability (SW 1573; first compound 158.11 µM): 0.0746
relative viability (SW 1573; first compound 500 µM): 0.0663
